Reference: US11135236B2, “Retinoic acid receptor gamma agonists to attenuate anthracycline-induced cardiotoxicity” (Northwestern University, priority 2018, dated 2021)
Entries after “also recorded” stand apart in the source; their conditions may differ. Marks after values point to notes of the source that are not given here.

Experiments:
MCF7 = assay: breast cancer cell viability after 72 h of doxorubicin and RARG agonists co-treatment; type: cell-based, human; details: MCF7, doxorubicin LD50 with agonist co-treatment, 10 μM, footnote: 1 μM each, 72 h; Vehicle 0.490
Experimental: (§2) 384-well plate-based cell viability, caspase 3/7 activity, and reactive oxygen species (ROS) assays. […] Luminescence was measured using a VarioSkan Lux Multi-Mode Reader (Thermo Scientific) with an integration time of 0.25 sec. 10 μM staurosporine (MedChemExpress) was used as a positive control. […] 10 μM staurosporine and 50 μM menadione (both MedChemExpress) was used as a positive control, respectively. Data were analyzed using Prism 7.0 software (GraphPad) using standard dose-response guidelines.
Breast cancer cell lines. Four human breast cancer cell lines were used, MCF7 (adenocarcinoma, ATCC HTB-22) and Hs 578T (carcinsarcoma, ATCC HTB-126) both cultured in RPMI 1640 (Corning) with 10% FBS (Opti-Gold, GenDEPOT), MDA-MB-231 (adenocarcinoma, ATCC HTB-26) and MDA-MB-468 (adenocarcinoma, ATCC HTB-131) both cultured in DMEM (Corning) with 10% FBS. All cells were cultured on uncoated tissue culture plates (Greiner) and passaged with TrypLE Express (Gibco).

C57BL/6J Mice = assay: mouse model of doxorubicin-induced cardiomyopathy, echocardiography; type: in vivo; details: doxorubicin 3 mg kg^−1 i.p. twice weekly for 3 weeks, agonist 12 mg kg^−1 oral once a day, at three weeks
Excerpt: (§1) Mouse model of doxorubicin-induced cardiomyopathy and drug administration. […] For the control group, we treated mice with corn oil in the same schedule as agonist administration. We recorded an echocardiogram once a week (day 0, day 7, day 14, and day 21) and terminated the experiment at day 21. Hearts were harvested for western blot analyses as mentioned above.
Echocardiographic evaluation. Mice were studied at baseline and weekly during the protocol under light anesthesia with isoflurane (induction 3%, maintenance 1.5%). 2D images in the parastemal short axis were obtained with a GE Vivid 7 ultrasound system (GE Healthcare) equipped with a 13 MHz transducer. Left ventricular end-systolic (LVESD) and end-diastolic (LVEDD) dimensions were measured and left ventricular fractional shortening (FS) was calculated.

[1] = system: TOP2B, pERK and BCL2 in the hearts of mice; assay: Western blot of mouse hearts at three weeks after treatment; type: in vivo; details: doxorubicin plus oral agonist
Experimental: Western blot. We washed and harvested cells in cold PBS and collected them by centrifugation at 20,000 g for 10 min. at 4° C. Pellet was lysed in PBS containing 1% SDS and protease inhibitors (cOmplete, ROCHE) and sonicated (2 pulses of 12 sec at 125 Watt) to shear DNA. We centrifuged the samples at 20,000 g for 15 min. at RT to precipitate and discard the insoluble material and the protein concentration in the supernatant was quantified using BCA assay (Thermo Scientific) following manufacturer's instructions. 20 μg protein/sample were subject to SDS-PAGE in a 9% acrylamide gel for 45 min. at 180 V. and transferred to a PVDF membrane (Immobilon-P, Millipore) at 200 mA. For 90 min. Membranes were blocked in TBST containing 5% milk for 1 h. at RT and incubated at 4° C. overnight with the following primary antibodies: 1:1000 monoclonal rabbit IgG RARG (Abcam, ab187159), 1:1000 polyclonal rabbit IgG TOP2B (Abcam, ab125297), 1:5000 polyclonal rabbit IgG β-Tubulin (Sigma, T2200), 1:5000 monoclonal mouse IgG2a β-Actin (Sigma, A5316). The membrane was washed three times for 10 min with TBST and incubated with the appropriate secondary antibody: 1:5,000 HRP-goat anti-mouse IgG or HRP-goat anti-rabbit IgG (GE NA931V and NA934V) for 1 h. at RT. After three additional washes with TBST, membranes were developed by chemiluminiscence (SuperSignal West Pico, Thermo Scientific). Signals were captured using a CCD camera-based imager (Azure Biosystems) and quantified using Image J software. Mice heart tissues were harvested and homogenized using lysis buffer (80 mM NaCl, 0.05% Triton X, 1 mM EDTA, 20 mM HEPES, 0.5% sodium deoxycholate, 1 mM DTT, 20 mM β-glycerophosphate) with TissueLyser LT (Qiagen) and centrifuged at 10,000 rpm for 15 min at 4° C. Proteins were quantified with Bradford (Bio-Rad) and separated by TrisGlycine SDS/PAGE (Bio-Rad). Transferred proteins on nitrocellulose membrane were probed against TOP2B (R&D Systems), phosphorylated ERK1/2 (Cell Signaling Technologies), BCL2 (Santa Cruz Biotechnology), and GAPDH (Advanced ImmunoChemical).
as §1

ERK1/2 = assay: MSD analysis of phosphorylated ERK in hiPSC-CMs; type: cell-based, human; details: Control hiPSC-CMs treated with doxorubicin 24 h, with or without pre/co-treatment
Experimental: MSD analysis of phosphorylated ERK. hiPSC-CMs were collected in lysis buffer (150 mM NaCl, 1% TritonX-100, 50 mM Tris-HCl, pH 8.0) supplemented with Phosphatase Inhibitor II (1:100, Sigma-Adrich), Phosphatase Inhibitor Cocktail 3 (1:100, Sigma-Adrich), 1 mM NaVO4 and protease inhibitors (cOmplete, ROCHE). We centrifuged the samples at 50,000 g for 15 min. at 4° C. to precipitate and discard the insoluble material and the protein concentration in the supernatant was quantified using BCA assay (Thermo Scientific) following manufacturer's instructions. 2.5 μg protein/sample were analyzed using the MSD Phospho(Thr202/yr204; Thr185/Tyr187)/Total ERK1/2 Assay Whole Cell Lysate Kit (Meso Scale Discovery, K15100D-1), according to manufacturer's recommendations. The ratio of phosphorylated ERK was normalized to Total ERK1/2 signal, and analyzed using Prism 7.0 software (GraphPad).

RARG-WT hiPSC-CMs = details: RARG-WT hiPSC-CMs, agonist 1 μM, 72 h doxorubicin
Experimental: as §2

control hiPSC-CMs = details: 1 μM CD1530 and 30 μM U0126, Control hiPSC-CMs, 72 h doxorubicin
Experimental: as §2

SMILES | LD50 (MCF7) | cardiac function (fractional shortening) compared with vehicle treatment (C57BL/6J Mice) | pERK in the murine hearts [1] | pERK (ERK1/2) | BCL2 in the murine hearts [1] | TOP2B in the murine hearts [1] | increase of doxorubicin LD50 (RARG-WT hiPSC-CMs) [fold] | effect of ERK signaling inhibition on the protective effect of CD1530 (control hiPSC-CMs)
CC1=C(/C=C/C(C)=C/C=C/C(C)=C/C(=O)O)C(C)(C)CCC1 [ATRA, 3,7-Dimethyl-9-(2,6,6-trimethyl-1-cyclohexen-1-yl)-2E,4E,6E,8E-nonatetraenoic acid] | 0.355 µM | marginally improved | significantly increased |  |  |  |  | 
O=C(O)c1ccc(-c2ccc3cc(O)c(C45CC6CC(CC(C6)C4)C5)cc3c2)cc1 [CD1530, 4-(6-Hydroxy-7-tricyclo[3.3.1.13,7]dec-1-yl-2-naphthalenyl)benzoic acid] | 0.275** μM | significantly higher | significantly increased | significant increase in pERK; also recorded: significant upregulation of ERK expression | significant upregulation | modest but non-significant downregulation | 4 | 
O=C(O)c1ccc2cc(-c3ccc(O)c(C45CC6CC(CC(C6)C4)C5)c3)ccc2c1 [CD437, 6-(4-Hydroxy-3-tricyclo[3.3.1.13,7]dec-1-ylphenyl)-2-naphthalenecarboxylic acid] | 0.343 µM |  |  |  |  |  |  | 
N#CC(=C(/N)Sc1ccccc1N)/C(C#N)=C(\N)Sc1ccccc1N [U0126] |  |  |  |  |  |  |  | completely abolished the protective effect of CD1530
